Laboratory results published in patent publication US20210179578A1, “OX1 ANTAGONISTS” (Heptares Therapeutics Limited, priority 2017, published 2021).

Biological target: T1, human OX1 receptor (Homo sapiens, UniProt O43613)
T1 sequence (O43613 1-425): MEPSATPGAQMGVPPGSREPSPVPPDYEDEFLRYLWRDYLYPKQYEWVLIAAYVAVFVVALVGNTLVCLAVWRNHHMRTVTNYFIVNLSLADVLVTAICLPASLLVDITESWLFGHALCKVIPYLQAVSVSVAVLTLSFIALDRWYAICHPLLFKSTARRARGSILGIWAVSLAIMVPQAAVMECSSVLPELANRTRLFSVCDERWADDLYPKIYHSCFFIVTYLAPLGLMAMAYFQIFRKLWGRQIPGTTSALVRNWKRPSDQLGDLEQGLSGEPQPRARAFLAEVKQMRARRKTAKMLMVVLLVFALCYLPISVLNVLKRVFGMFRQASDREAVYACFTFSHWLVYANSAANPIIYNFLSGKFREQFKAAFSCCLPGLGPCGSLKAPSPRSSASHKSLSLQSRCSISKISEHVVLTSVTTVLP
Test: [3H]-radioligand binding assay, OX1
Parameters: made in house; host or cells: SF21 insect cells (baculovirus; P0 virus made in SF9)
Conditions: [3H]-radioligand binding, human OX1 membranes; read-out: pKi average OX1 (converted)
Description: Cloning, Baculovirus generation, large-scale infection of SF21 cells and membrane preparation. Human OX1 or OX2 receptor were cloned into Invitrogen's (ThermoFisher Scientific, UK) Bac-to-Bac Baculovirus Expression System. P0 baculovirus was generated by transfecting SF9 cells with bacmid DNA using Cellfectin® II transfection reagent (ThermoFisher Scientific, UK, Catalog number 10362-100). Following P0 generation P1 virus was then generated ready for large scale infection and membrane preparation. SF21 cells were grown in expression medium ESF921 (Expression Systems, USA, catalog number 96-001-01) supplemented with 10% heat-inactivated FBS and 1% Pen/Strep and were infected at a cell density of 2.5×10^6 cells/mL and a multiplicity of infection of 1.0 for both human OX1R and OX2R. Incubation was carried out at over 48 h in a shaking incubator set at 27° C. The cell culture was then centrifuged at 2,500 rcf for 10 min at 4° C. The pellets were resuspended in cold PBS supplemented with Roche's Complete EDTA-free protease inhibitor cocktail tablets (Roche Applied Sciences, catalog number 05056489001), 1 mM PMSF and 1 mM EDTA. The resuspended cell paste was then centrifuged at 3,273 rcf for 12 min at 4° C. The supernatant was discarded and the pellet frozen at −80° C. The cell pellet from a 4 L culture was resuspended in buffer containing 50 mM HEPES pH 7.5, 150 mM NaCl, 8 Roche EDTA-Free protease inhibitor cocktail tablets and 1 mM PMSF. The suspension was left stirring at rt for 1 h and then homogenised for 90 s at 9,500 rpm using a VDI 25 (VWR, USA) homogeniser. The cells were then lysed using a Microfluidiser processor M-110L Pneumatic (Microfluidics, USA) at 60 PSI and membranes collected by ultracentrifugation at 204.7 k×g for 1 h. The supernatant was discarded and the pellet was resuspended and homogenised in 90 s at 9,500 rpm in 50 mL (25 mL for each 2 L culture) of buffer containing 50 mM Hepes pH 7.5, 150 mM NaCl, 3 Roche EDTA-free protease inhibitor cocktail tablets and 1 mM PMSF. The resulting membranes were then stored at −80° C.
[^3H]-radioligand binding assay. After thawing, membrane homogenates were resuspended in the binding buffer (8.5 mM HEPES, pH 7.4, 1.3 mM CaCl2, 1.2 mM MgSO4, 118 mM NaCl, 4.7 mM KCl, 4 mM NaHCO3, 1.2 mM KH2PO4, 11 mM glucose) to a final assay concentration of 6.4 μg (OX1) or 1.4 μg (OX2) protein per well. Saturation isotherms were determined by the addition of various concentrations (0-30 nM) of [^3H]-4-(2,6-difluoro-4-methoxybenzyl)-2-(5,6-dimethoxypyridin-3-yl)-2H-1,2,4-benzothiadiazin-3(4H)-one 1,1-dioxide (Christopher et al, MedChemComm., 2015, 6, 947-955) in a total reaction volume of 250 μL for 90 min at rt. At the end of the incubation, membranes were filtered onto a 96-well GF/B filter pre-incubated with 0.5% polyethylenimine, with a Tomtec cell harvester and washed 5 times with 0.5 mL distilled water. Non-specific binding (NSB) was measured in the presence of 3.33 μM [4-(5-chloro-1,3-benzoxazol-2-yl)-7-methyl-1,4-diazepan-1-yl][5-methyl-2-(2H-1,2,3-triazol-2-yl)phenyl]methanone (Wertz et al, Angew. Chem. Int. Ed., 2011, 50, 11511-11515). Radioactivity on the filter was counted (1 min) on a Microbeta radiometric plate counter (Perkin Elmer) after addition of 50 μL of scintillation fluid (LabLogic: Part #SG-BXX-14). […] IC50 values were derived from the inhibition curve and the equilibrium dissociation constant (Ki) values were calculated using the Cheng-Prusoff equation.

| Ki [nM] | SMILES |
| --- | --- |
| 3.16 | COc1ncc(N2CCc3c(F)cccc3N(Cc3c(F)cc(Br)cc3F)C2=O)cc1S(C)(=O)=O [Example 14, 1-(4-bromo-2,6-difluorobenzyl)-6-fluoro-3-[6-methoxy-5-(methylsulfonyl)pyridin-3-yl]-1,3,4,5-tetrahydro-2H-1,3-benzodiazepin-2-one] |
| 1.26 | COc1cc(F)c(CN2C(=O)N(c3cnc(OC)c(S(C)(=O)=O)c3)CCc3c(F)cccc32)c(F)c1F [Example 15, 6-fluoro-3-[6-methoxy-5-(methylsulfonyl)pyridin-3-yl]-1-(2,3,6-trifluoro-4-methoxybenzyl)-1,3,4,5-tetrahydro-2H-1,3-benzodiazepin-2-one] |
| 0.794 | COc1cc(F)c(CN2C(=O)N(c3cnc(OC)c(S(C)(=O)=O)c3)CCc3c(F)cccc32)c(F)c1 [Example 16, 1-(2,6-difluoro-4-methoxybenzyl)-6-fluoro-3-[6-methoxy-5-(methylsulfonyl)pyridin-3-yl]-1,3,4,5-tetrahydro-2H-1,3-benzodiazepin-2-one] |
| 0.794 | COc1ncc(N2CCc3c(F)cccc3N(Cc3c(C)cc(Br)cc3F)C2=O)cc1S(C)(=O)=O [Example 17, 1-(4-bromo-2-fluoro-6-methylbenzyl)-6-fluoro-3-[6-methoxy-5-(methylsulfonyl)pyridin-3-yl]-1,3,4,5-tetrahydro-2H-1,3-benzodiazepin-2-one] |
| 1.26 | COc1ncc(N2CCc3c(F)cccc3N(Cc3c(C)cc(F)cc3F)C2=O)cc1S(C)(=O)=O [Example 18, 1-(2,4-difluoro-6-methylbenzyl)-6-fluoro-3-[6-methoxy-5-(methylsulfonyl)pyridin-3-yl]-1,3,4,5-tetrahydro-2H-1,3-benzodiazepin-2-one] |
| 1.26 | COc1nc(OC)c(C(C)(F)F)cc1N1CCc2c(F)cccc2N(Cc2c(F)cc(Br)cc2F)C1=O [Example 23, 1-(4-bromo-2,6-difluorobenzyl)-3-[5-(1,1-difluoroethyl)-2,6-dimethoxypyridin-3-yl]-6-fluoro-1,3,4,5-tetrahydro-2H-1,3-benzodiazepin-2-one] |
| 1 | COCc1cc(F)c(CN2C(=O)N(c3cc(C(C)(F)F)c(OC)nc3OC)CCc3c(F)cccc32)c(F)c1 [Example 24, 3-[5-(1,1-difluoroethyl)-2,6-dimethoxypyridin-3-yl]-1-[2,6-difluoro-4-(methoxymethyl)benzyl]-6-fluoro-1,3,4,5-tetrahydro-2H-1,3-benzodiazepin-2-one] |
| 1.58 | COc1cc(F)c(CN2C(=O)N(c3cc(S(C)(=O)=O)c(OC)nc3OC)CCc3c(F)cccc32)c(F)c1 [Example 25, 1-(2,6-difluoro-4-methoxybenzyl)-3-[2,6-dimethoxy-5-(methylsulfonyl)pyridin-3-yl]-6-fluoro-1,3,4,5-tetrahydro-2H-1,3-benzodiazepin-2-one] |
| 1.58 | Cc1ccc(N2CCc3c(F)cccc3N(Cc3c(F)cc(Br)cc3F)C2=O)cc1S(C)(=O)=O [Example 27, 1-(4-bromo-2,6-difluorobenzyl)-6-fluoro-3-[4-methyl-3-(methylsulfonyl)phenyl]-1,3,4,5-tetrahydro-2H-1,3-benzodiazepin-2-one] |
| 2 | CCCc1cc(F)c(CN2C(=O)N(c3ccc(C)c(S(C)(=O)=O)c3)CCc3c(F)cccc32)c(F)c1 [Example 28, 1-(2,6-difluoro-4-propylbenzyl)-6-fluoro-3-[4-methyl-3-(methylsulfonyl)phenyl]-1,3,4,5-tetrahydro-2H-1,3-benzodiazepin-2-one] |
| 1.26 | Cc1cc(C)c(S(C)(=O)=O)cc1N1CCc2ccccc2N(Cc2c(F)cc(Br)cc2F)C1=O [Example 29, 1-(4-bromo-2,6-difluorobenzyl)-3-[2,4-dimethyl-5-(methylsulfonyl)phenyl]-1,3,4,5-tetrahydro-2H-1,3-benzodiazepin-2-one] |
| 1.26 | Cc1cc(C)c(S(C)(=O)=O)cc1N1CCc2ccccc2N(Cc2c(F)cc(OC(C)C)cc2F)C1=O [Example 30, 1-[2,6-difluoro-4-(propan-2-yloxy)benzyl]-3-[2,4-dimethyl-5-(methylsulfonyl)phenyl]-1,3,4,5-tetrahydro-2H-1,3-benzodiazepin-2-one] |
| 1.26 | Cc1cc(C)c(S(C)(=O)=O)cc1N1CCc2c(F)cccc2N(Cc2c(F)cc(Br)cc2F)C1=O [Example 31, 1-(4-bromo-2,6-difluorobenzyl)-3-[2,4-dimethyl-5-(methylsulfonyl)phenyl]-6-fluoro-1,3,4,5-tetrahydro-2H-1,3-benzodiazepin-2-one] |
| 0.631 | Cc1ncc(N2CCc3c(F)cccc3N(Cc3c(F)cc(Br)cc3F)C2=O)cc1C(C)(F)F [Example 32, 1-(4-bromo-2,6-difluorobenzyl)-3-[5-(1,1-difluoroethyl)-6-methylpyridin-3-yl]-6-fluoro-1,3,4,5-tetrahydro-2H-1,3-benzodiazepin-2-one] |
| 0.631 | COCc1cc(F)c(CN2C(=O)N(c3cnc(C)c(C(C)(F)F)c3)CCc3c(F)cccc32)c(F)c1 [Example 33, 3-[5-(1,1-difluoroethyl)-6-methylpyridin-3-yl]-1-[2,6-difluoro-4-(methoxymethyl)benzyl]-6-fluoro-1,3,4,5-tetrahydro-2H-1,3-benzodiazepin-2-one] |
| 1.58 | CCCc1cc(F)c(CN2C(=O)N(c3cnc(C)c(C(C)(F)F)c3)CCc3c(F)cccc32)c(F)c1 [Example 34, 3-[5-(1,1-difluoroethyl)-6-methylpyridin-3-yl]-1-(2,6-difluoro-4-propylbenzyl)-6-fluoro-1,3,4,5-tetrahydro-2H-1,3-benzodiazepin-2-one] |
| 1.58 | Cc1ncc(N2CCc3c(F)cccc3N(Cc3c(F)cc(Br)cc3F)C2=O)cc1OC(F)F [Example 37, 1-(4-bromo-2,6-difluorobenzyl)-3-[5-(difluoromethoxy)-6-methylpyridin-3-yl]-6-fluoro-1,3,4,5-tetrahydro-2H-1,3-benzodiazepin-2-one] |

| SMILES | Ki [nM] |
| --- | --- |
| CSc1cc(N2CCc3c(F)cccc3N(Cc3c(F)cc(Br)cc3F)C2=O)ccc1C [Example 26, 1-(4-bromo-2,6-difluorobenzyl)-6-fluoro-3-[4-methyl-3-(methylsulfanyl)phenyl]-1,3,4,5-tetrahydro-2H-1,3-benzodiazepin-2-one] | 1.26 |
